# Data reported in patent US11919854B2, “P2RX7 modulators in therapy” (Centre national de la recherche scientifique, priority 2018, dated 2024).
# Experiments:
# DSS-induced colitis = DSS-induced colitis mouse model; assay type: in vivo, C57BL/6J mice
# Experimental: (A) Body weight loss and (B) clinical scores from C57BL/6J treated with 3% DSS during 5 days (J1 to J5), followed by 10 days of normal tap water. The treated group received HEI2328 (ip, 2.3 mg/kg in PBS, 10% DMSO). Data are representative of 2 independent experiments (n=20). Mean±SEM are shown. *, p<0.05; **, p<0.01 (Mann-Whitney test).
# The inflammatory index was scored in a longitudinal (A) and a transversal section of the colon (B). Data are representative of 2 independent experiments (n=20). Mean±SEM are shown. *, p<0.05; **, p<0.01 (Mann-Whitney test).
# (A-D) Phenotypic analysis of immune cells in spleen of 20 mice treated with HEI2328 or non treated. Data are representative of 2 independent experiments (n=20). Mean±SEM are shown. *, p<0.05; **, p<0.01 (Mann-Whitney test).
# All mice received dextran sulfate sodium (3% DSS, TbS consultancy) ad libitum from day 1 to 5 and returned to normal tap water for the following 10 days. Control mice (n=20) were injected daily intraperitoneally with placebo (PBS/10% DMSO), whereas treated mice received 2.3 mg/kg HEI2328 in PBS/10% DMSO. The inventors used the following semi-quantitative clinical score:
# Body weight loss was scored as follows: 0, no loss; 1, loss <5%; 2, loss <10%; 3, loss <20%; and 4, loss >20%.
# The scores for stool consistency were measured as 0, normal; 1, loose stools; 2, watery diarrhea; or 3, severe watery diarrhea.
# Rectal bleeding was scored as 0, no blood; 1, presence of petechia; 2, stools with a trace of blood; or 3, bleeding.
# Inflammation score was performed by trained pathologists. Briefly, the severity of inflammation (none, mild, moderate, severe), extent of inflammation (none, mucosa, mucosa, and submucosa, transmural), crypt damage (none, basal to 1/3, basal to 2/3, crypt loss, crypts, and epithelium loss), and percentage of tissue affected by inflammation (0, 25, 50, 75, and 100%) were scored.
# human P2RX7 = target: T1, human P2RX7 (Homo sapiens, UniProt Q99572); experiment: Large pore opening with increasing BzATP in human P2RX7 expressing cells; assay type: cell-based; conditions: increasing concentration of BzATP with or without HEI3090
# T1 construct: expressed in transfected cells; host or cells: HEK cells
# T1 sequence (Q99572 1-595): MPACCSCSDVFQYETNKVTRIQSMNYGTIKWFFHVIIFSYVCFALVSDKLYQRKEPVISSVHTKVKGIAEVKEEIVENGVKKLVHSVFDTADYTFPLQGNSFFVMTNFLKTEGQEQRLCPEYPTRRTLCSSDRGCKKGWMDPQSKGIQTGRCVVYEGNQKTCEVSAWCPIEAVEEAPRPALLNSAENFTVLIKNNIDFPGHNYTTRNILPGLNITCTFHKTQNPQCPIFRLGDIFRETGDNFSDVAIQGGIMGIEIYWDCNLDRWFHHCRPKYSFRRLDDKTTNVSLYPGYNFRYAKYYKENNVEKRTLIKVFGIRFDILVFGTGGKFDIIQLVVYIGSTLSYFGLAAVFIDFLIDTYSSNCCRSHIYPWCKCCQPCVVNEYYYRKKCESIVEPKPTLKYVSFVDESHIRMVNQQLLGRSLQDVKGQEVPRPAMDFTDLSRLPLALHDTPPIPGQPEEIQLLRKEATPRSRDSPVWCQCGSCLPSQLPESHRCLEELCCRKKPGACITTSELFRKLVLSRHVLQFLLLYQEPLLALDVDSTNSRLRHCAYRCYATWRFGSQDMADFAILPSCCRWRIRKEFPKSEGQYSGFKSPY
# Experimental: A. Splenocytes from control or p2rx7^exon2 KO mice were isolated and treated with HEI3090 (50 μM) in presence of absence of BzATP (500 μM). B. Large pore opening induced by increasing concentration of BzATP in presence or absence of HEI3090 in human P2RX7 expressing cells.
# Indeed, with the same BzATP concentration, more cells are positive for Topro3 staining.
# B16F10 cells = experiment: B16F10 cell death (XTT absorbance); assay type: cell-based, mouse; conditions: 3 h treatment with BzATP and HEI3090
# Experimental: A. Large pore opening. Dot plot of representative experiment. Numbers highlighted the percentage of positive cells. […] B. representative curve of XTT absorbance over the time. […] Mean±SEM are shown. ***, p<0.001; ****, p<0.0001 Mann-Whitney test.
# Of interest, potentiation of large pore opening correlated with increased-B16F10 cell death, as illustrated in FIG. 9. Cells treated during 1 h with BzATP and HEI3090 incorporated 3-fold more Topro3 than cells treated with BzATP only (FIG. 9A). Longer incubation increased cell death, since it was observed up to 80% of dead cells after 3 h treatment (FIG. 9B).
SMILES,clinical score (DSS-induced colitis; 2.3 mg/kg ip daily),recovery of original weight (DSS-induced colitis; 2.3 mg/kg ip daily),proportion of inflammatory monocytes in spleen (DSS-induced colitis; CD11b+CD11c−Ly6c+Ly6g−CD3−NK1.1−B220−),reduction of clinical signs compared with classical P2RX7 antagonists (literature) (DSS-induced colitis; comparison with published antagonist data),"inflammatory (histologic) index of colon (DSS-induced colitis; day 15, colon sections)","body weight loss (DSS-induced colitis; days 6 to 9, 2.3 mg/kg ip daily, 3% DSS days 1-5)",myeloid infiltrate in spleen (DSS-induced colitis; treated mice (28 in non treated)),lymphoid population in spleen (DSS-induced colitis; treated mice (67 in non treated)),Treg and Tγδ lymphocytes within lymphoid populations of spleen (DSS-induced colitis; treated vs non treated),proportion of conventional DC (cDC) and plasmacytoid DC (pDC) in spleen (DSS-induced colitis; treated vs non treated),large pore opening (Topro3 staining) (human P2RX7),dead cells (B16F10 cells)
"O=C(NCc1ccc(Cl)cc1Cl)[C@@H]1CCC(=O)N1C(=O)Nc1ccc(Cl)c(Cl)c1 [HEI2328, (S)—N^2-(2,4-Dichlorobenzyl)-N^1-(3,4-dichlorophenyl)-5-oxopyrrolidine-1,2-dicarboxamide]",more healthy and recovered quicker than control mice,recovered their original weight after 15 days,statistically decreased,more efficient than classical P2RX7 antagonists,very low inflammatory index,lost statistically less weight than the control group,17%,76%,increased,did not modify,–,–
"O=C(NCc1ccc(Cl)cc1Cl)[C@@H]1CCC(=O)N1C(=O)Nc1ccc(Cl)nc1 [HEI3090, (S)—N^1-(6-Chloropyridin-3-yl)-N^2-(2,4-dichlorobenzyl)-5-oxopyrrolidine-1,2-dicarboxamide]",–,–,–,–,–,–,–,–,–,–,enhanced large pore opening in presence of BzATP,up to 80%
